Laboratory results reported in patent US9284283B2, “Macrocyclic compounds for modulating IL-17” (ENSEMBLE THERAPEUTICS CORPORATION, priority 2012, dated 2016).
One block for each molecule: values may come before it.

Experiments:
[1] = system: IL-17-induced GROα secretion from HT-29 cells; experiment: HT-29 cellular assay (IL-17-induced GROα secretion); format: cell-based; settings: Homo sapiens
Method: To test the ability of a compound of the invention to neutralize or antagonize IL-17 bioactivity, the following cell-based assay was used. IL-17 can stimulate epithelial cells and other cells to secrete GROα. The ability of a compound of the invention to neutralize IL-17-induced GROα secretion from the human colorectal adenocarcinoma epithelial cell line HT-29 is tested in this assay.
HT-29 cells (human colorectal adenocarcinoma epithelial cells, ATCC #HTB-38), were maintained in culture/assay medium in tissue culture-treated flasks using standard techniques. HT-29 cells were grown in tissue culture flasks until they were 50-80% confluent on the day before the assay. The day before the assay, the cells were detached from the culture flasks with trypsin+EDTA. The trypsin was inactivated with complete assay medium. HT-29 cells were then centrifuged at 500×g for 5 minutes at room temperature. The cell pellet was then re-suspended in Defined Keratinocyte SFM (Invitrogen #10766019)+10% FCS and 50,000 HT-29 cells (in 100 μl) were added to each treatment well of the 96-well plates. The 96-well plates were placed in a tissue culture incubator (37° C., 5% CO2) overnight. The next day, the media was removed from the cells and the cells were washed twice with Defined Keratinocyte SFM. In a separate 96-well plate, compounds to be tested were serially diluted in Defined Keratinocyte SFM and run in triplicate in 100 μL total volume. To these compound samples were then added 100 μL of human IL-17 at a concentration of 20 ng/mL in Defined Keratinocyte SFM for serum-free assays. 150 μL of the compound/IL-17 mixture was then added to the cells from which the media has previously been removed. The cells were grown for 48 hours in Defined Keratinocyte SFM in a tissue culture incubator (37° C., 5% CO2).
At the end of the incubation, the plates are centrifuged (500×g for 5 minutes at room temperature), and the cell culture media is transferred to polypropylene 96-well plates. The supernatant was used neat in the ELISA. GROα levels are measured with a GROα sandwich ELISA (R+D Systems DuoSet #DY275E), as per the manufacturer's instructions. The ELISA plates were previously coated with mAb 275 (R+D Systems) at 4 μg/mL. GROα is detected using biotinylated goat anti-human GROα (R+D Systems BAF275) at 200 ng/mL using TMB as a substrate. At the end of the ELISA reactions, plates are read at 450 nm on a microplate reader and compared to a standard calibration curve.

IL17A = target: T1, IL17A (Homo sapiens, UniProt Q16552); experiment: Surface Plasmon Resonance (SPR) analysis of compound interactions with IL17A; settings: SPR binding to IL17A
T1 sequence (Q16552 24-155): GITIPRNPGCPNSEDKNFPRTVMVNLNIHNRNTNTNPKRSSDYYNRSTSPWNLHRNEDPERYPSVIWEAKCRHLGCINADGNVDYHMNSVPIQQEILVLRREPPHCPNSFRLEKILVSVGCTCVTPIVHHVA
Summary of the method: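 His-tagged IL17A captured on a Ni-NTA chip; five 2- or 3-fold compound dilutions from 50 μM injected for 180 s, 120 s dissociation, in HEPES-saline buffer with 0.5% DMSO. Baseline-subtracted sensorgrams fitted 1:1 for ka, kd and KD; Kd also derived from binding extent per concentration.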

[2] = target: T2, recombinant human IL17a (binding to its receptor IL17R) (Homo sapiens, UniProt Q16552); experiment: IL-17 competition ELISA I (IL17a coated, IL17R/Fc binding)
T2 construct: purchased R&D Systems 317-ILB (IL17a); 177-IR (IL17R/Fc)
T2 sequence (Q16552 20-155 limits assumed): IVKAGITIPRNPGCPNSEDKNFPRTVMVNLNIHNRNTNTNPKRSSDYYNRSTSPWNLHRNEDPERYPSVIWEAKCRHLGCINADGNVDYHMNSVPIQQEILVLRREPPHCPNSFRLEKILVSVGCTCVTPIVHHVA
Summary of the method: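 Plates coated with 20 nM recombinant human IL17a received compound dilutions and 12 nM IL17R/Fc (final) for 30 min at room temperature. Bound receptor was detected with HRP anti-human Fc and TMB, read at 450 nm. IC50 came from a 4-parameter logistic fit between no-competitor and blank controls.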

DNFB-treated BALB/c mice = experiment: Murine model of delayed hypersensitivity (DNFB-induced ear edema); format: in vivo, mouse; settings: po; for Reduction in edema (%): ear weight 24 h after DNFB challenge; for CXCL1 Reduction (%) / IFNγ Reduction (%) / IL6 Reduction (%): plasma
Method: We used a murine model of fluorodinitrobenzene (DNFB)-induced ear edema to test the anti-inflammatory activity of both orally dosed and intraperitoneally dosed exemplary compounds of the invention. BALB/c mice (Harlan Sprague-Dawley, Inc., male, 6-8 weeks old) were topically treated on their shaved abdomen with 30 μL of 0.5% 1-fluoro-2,4-dinitrobenzene (DNFB) (4:1 acetone:olive oil) once on Day 0 and once on Day 1.
For oral dosing (“PO”), exemplary compounds of the invention were either suspended at 3 mg/mL in 20% Cremophor EL (Sigma) (20:80; Cremophor:water) or dissolved at 1 mg/mL or 3 mg/mL in D-α-tocopherol polyethylene glycol 1000 succinate (TPGS; Sigma)/PEG-400/water (20:60:20). For intraperitoneal dosing (“IP”), exemplary compounds of the invention were dissolved in DMSO at a concentration of 5 mg/mL. On day 7, the test compound was administered (PO at either 10 mg/kg or 30 mg/kg; IP at 1, 3, or 10 mg/kg) to DNFB-treated mice. Commercially available anti-mouse IL-17A (BioLegend) administered intraperitoneally at 5 mg/kg in PBS was used as a positive control. Thirty minutes later, 20 μL of 0.2% DNFB was applied to the right ear of animals and vehicle ([…]:olive oil) was applied to the left ear. One and four hours after DNFB challenge, a subset of mice was exsanguinated and plasma prepared from the blood. Twenty-four hours after challenge, the remaining mice were euthanized, and their ears were removed and weighed to determine the amount of edema. Plasma was assayed for interleukin-6, TNF-α, CXCL1, and interferon-γ concentrations using commercially-available assays.

[3] = system: IL-17A induced secretion of IL-6 in primary human RASF cells; experiment: Inhibition of IL17A induced secretion of IL6 in human rheumatoid arthritis synovial fibroblast (RASF) cells; format: cell-based; settings: Homo sapiens, Fibroblast
Summary of the method: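 Primary RASF cells (passage 2-8) stimulated 20 h at 37 °C with rhIL-17A (30 ng/mL) pre-incubated 1 h with compound (final 0.03-25 μM, 0.25% DMSO). Supernatant IL-6 measured by ELISA, normalized to WST1 viability; triplicates.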

[4] = target: T3, biotinylated human IL-17 (binding to IL17R/Fc) (Homo sapiens, UniProt Q16552); experiment: IL-17 competition ELISA II (captured IL17R/Fc, biotinylated IL-17)
T3 construct: purchased R&D Systems 317-ILB (IL-17, biotinylated); 177-IR (IL17R/Fc)
T3 sequence (Q16552 20-155 limits assumed): T2 sequence (Q16552 20-155 limits assumed)
Summary of the method: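 Anti-human IgG-coated plates captured IL17R/Fc (10 nM), then compound (5-fold dilutions from 1 μM) and biotinylated human IL-17 (20 nM stock) were added for 30 min at room temperature in PBST. Bound IL-17 detected by streptavidin-HRP/TMB at 450 nm. IC50 from 4-parameter logistic fit between no-competitor and blank controls.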

Compound: O=C1CNC(=O)[C@@H](Cc2ccc(NC(=O)[C@H](Cc3ccccc3Cl)NC(=O)Cc3ccccc3)cc2)NC(=O)CC2(CCCC2)CC(=O)N[C@@H](C(=O)O)CCCCN1 [Compound 180]
IC50 [1]: < 1000 nM | IC50 [2]: < 100 nM | Kd (IL17A): < 100 nM

Compound: O=C1CC2(CCCC2)CC(=O)N[C@H](Cc2ccc(NC(=O)[C@H](Cc3ccccc3Cl)NC(=O)C(F)(F)c3ccccc3)cc2)C(=O)NCCOCCOCCN1 [Compound 475]
Reduction in edema (%) (DNFB-treated BALB/c mice; 10 mg/kg): 19.2% | CXCL1 Reduction (%) (DNFB-treated BALB/c mice; 10 mg/kg): 61.4% | IFNγ Reduction (%) (DNFB-treated BALB/c mice; 10 mg/kg): 11.3% | IL6 Reduction (%) (DNFB-treated BALB/c mice; 10 mg/kg): 29.7% | Reduction in edema (%) (DNFB-treated BALB/c mice; 30 mg/kg): 49.5% | CXCL1 Reduction (%) (DNFB-treated BALB/c mice; 30 mg/kg): 63.0% | IFNγ Reduction (%) (DNFB-treated BALB/c mice; 30 mg/kg): 45.0% | IL6 Reduction (%) (DNFB-treated BALB/c mice; 30 mg/kg): 51.9% | IC50 [3]: 100 to 1000 nM | IC50 [4]: < 100 nM

Compound: O=C1CNC(=O)[C@@H](Cc2ccc(NC(=O)[C@H](Cc3ccccc3F)NC(=O)Cc3ccccc3)cc2)NC(=O)CC2(CCCC2)CC(=O)N[C@H](C(=O)O)CCCCN1 [Compound 177]
IC50 [1]: 1000 to 10000 nM | Kd (IL17A): < 100 nM

Compound: O=C1CNC(=O)[C@@H](Cc2ccc(NC(=O)[C@H](Cc3c(F)cccc3F)NC(=O)Cc3ccccc3)cc2)NC(=O)CC2(CCCC2)CC(=O)NCCCCCN1 [Compound 184]
IC50 [1]: 1000 to 10000 nM | Kd (IL17A): < 100 nM

Compound: COC(=O)[C@H]1CCCCNC(=O)CNC(=O)[C@@H](Cc2ccc(NC(=O)[C@H](Cc3ccccc3Cl)NC(=O)c3ccccc3)cc2)NC(=O)CC2(CCCC2)CC(=O)N1 [Compound 142]
IC50 [1]: 1000 to 10000 nM | Kd (IL17A): < 100 nM

Compound: COC(=O)[C@@H]1CCCCNC(=O)CNC(=O)[C@@H](Cc2ccc(NC(=O)[C@H](Cc3ccccc3F)NC(=O)Cc3ccccc3)cc2)NC(=O)CC2(CCCC2)CC(=O)N1 [Compound 108]
IC50 [1]: 1000 to 10000 nM | Kd (IL17A): < 100 nM

Compound: COC(=O)[C@H]1CCCCNC(=O)CNC(=O)[C@@H](Cc2ccc(NC(=O)[C@H](Cc3ccccc3Cl)NC(=O)Cc3ccccc3)cc2)NC(=O)CC2(CCCC2)CC(=O)N1 [Compound 141]
IC50 [1]: 1000 to 10000 nM | Kd (IL17A): < 100 nM

Other lines, results leading:

IC50 [1]: > 10000 nM | Kd (IL17A): 100 to 1000 nM
Compound: COC(=O)[C@@H]1CCCCNC(=O)CCCCNC(=O)[C@@H](Cc2ccc(NC(=O)[C@H](Cc3ccccc3F)NC(=O)Cc3ccccc3)cc2)NC(=O)CC2(CCCC2)CC(=O)N1 [Compound 110]

IC50 [1]: 1000 to 10000 nM
Compound: COC(=O)[C@@H]1CCCCNC(=O)CCCNC(=O)[C@@H](Cc2ccc(NC(=O)[C@H](Cc3ccccc3Br)NC(=O)Cc3ccccc3)cc2)NC(=O)CC2(CCCC2)CC(=O)N1 [Compound 120]

IC50 [1]: > 10000 nM | Kd (IL17A): 100 to 1000 nM
Compound: COC(=O)[C@@H]1CCCCNC(=O)CCCNC(=O)[C@@H](Cc2ccc(NC(=O)[C@H](Cc3ccccc3Cl)NC(=O)c3ccccc3)cc2)NC(=O)CC2(CCCC2)CC(=O)N1 [Compound 113]

IC50 [1]: 1000 to 10000 nM | IC50 [2]: < 100 nM | Kd (IL17A): < 100 nM
Compound: O=C1CNC(=O)[C@@H](Cc2ccc(NC(=O)[C@H](Cc3ccccc3Br)NC(=O)Cc3ccccc3)cc2)NC(=O)CC2(CCCC2)CC(=O)NCCCCCN1 [Compound 187]

IC50 [1]: > 10000 nM | Kd (IL17A): 100 to 1000 nM
Compound: COC(=O)[C@H]1CCCCNC(=O)CCCNC(=O)[C@@H](Cc2ccc(NC(=O)[C@H](Cc3ccccc3F)NC(=O)Cc3ccccc3)cc2)NC(=O)CC2(CCCC2)CC(=O)N1 [Compound 107]

IC50 [1]: 1000 to 10000 nM | Kd (IL17A): 100 to 1000 nM
Compound: COC(=O)[C@@H]1CCCCNC(=O)CCNC(=O)[C@@H](Cc2ccc(NC(=O)[C@H](Cc3ccccc3F)NC(=O)Cc3ccccc3)cc2)NC(=O)CC2(CCCC2)CC(=O)N1 [Compound 109]

IC50 [1]: 1000 to 10000 nM | Kd (IL17A): < 100 nM
Compound: COC(=O)[C@@H]1CCCCNC(=O)CCCNC(=O)[C@@H](Cc2ccc(NC(=O)[C@H](Cc3ccccc3Cl)NC(=O)Cc3ccccc3)cc2)NC(=O)CC2(CCCC2)CC(=O)N1 [Compound 112]
